Experimental data published in patent publication US20250353891A1 (MEDIMMUNE LIMITED, priority 2022, published 2025).
Starred links: 1 amine or outer side, 2 acyl side, 3 side chain; linkers in the order of their positions; H or OH if unused. Non-standard residues stand in square brackets, D forms with d. Residues, ends and D or L forms follow the SMILES beside them. Groups on a side chain read outwards from the residue. *: point of attachment. C20 diacid = O=C(O)CCCCCCCCCCCCCCCCCCC(=O)*; C18 diacid = O=C(O)CCCCCCCCCCCCCCCCC(=O)*; γGlu = O=C(O)[C@H](CCC(=O)[*:2])N[*:1]; αMeF = C[C@](N)(Cc1ccccc1)C(=O)O; AEEA = NCCOCCOCC(=O)O; Aib = CC(C)(N)C(=O)O

What was measured:
[1] = target: human glucagon receptor (hGCGR) (Homo sapiens, UniProt P47871); test: cAMP production (HTRF) in CHO cells expressing hGCGR; format: cell-based; set-up: expressed in transfected cells; conditions: Table 6, peptides modified at position 17; cAMP in CHO hGCGR cells; geometric mean; read-out: hGluc-R EC50
Summary of the method: (§1)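 Cells were resuspended in assay buffer at batch-optimized density, typically 1×10^5 cells/mL for hGLP-1R and 2×10^5 cells/mL for hGCGR. After 30 min incubation at room temperature with compound, cAMP was measured by two-step HTRF. EC50 values came from 4-parameter logistic fits of % Delta F.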

[2] = target: human GLP-1 receptor (hGLP-1R) (Homo sapiens, UniProt P43220); test: cAMP production (HTRF) in CHO cells expressing hGLP-1R; format: cell-based; set-up: expressed in transfected cells; conditions: for EC50: Table 6, peptides modified at position 17, cAMP in CHO hGLP-1R cells, geometric mean, read-out: hGLP-1R EC50; for % Relative Potency Ratio: Table 6, % GLP-1R activity relative to GLP-1 / % GlucR activity relative to glucagon
Summary of the method: as §1

human glucagon receptor (hGCGR), sequence (P47871 26-477): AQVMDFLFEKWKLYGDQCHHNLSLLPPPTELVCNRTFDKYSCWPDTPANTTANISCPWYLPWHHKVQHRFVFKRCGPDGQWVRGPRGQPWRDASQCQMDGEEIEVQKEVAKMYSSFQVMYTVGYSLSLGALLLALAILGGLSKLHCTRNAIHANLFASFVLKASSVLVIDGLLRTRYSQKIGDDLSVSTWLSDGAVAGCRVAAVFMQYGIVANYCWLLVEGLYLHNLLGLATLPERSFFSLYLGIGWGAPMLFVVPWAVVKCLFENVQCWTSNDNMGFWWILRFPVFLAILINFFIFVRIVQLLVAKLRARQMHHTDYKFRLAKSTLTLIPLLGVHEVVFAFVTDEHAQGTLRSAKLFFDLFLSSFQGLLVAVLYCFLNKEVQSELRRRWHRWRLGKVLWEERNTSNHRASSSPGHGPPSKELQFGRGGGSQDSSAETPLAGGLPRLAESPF
human GLP-1 receptor (hGLP-1R), sequence (P43220 24-463): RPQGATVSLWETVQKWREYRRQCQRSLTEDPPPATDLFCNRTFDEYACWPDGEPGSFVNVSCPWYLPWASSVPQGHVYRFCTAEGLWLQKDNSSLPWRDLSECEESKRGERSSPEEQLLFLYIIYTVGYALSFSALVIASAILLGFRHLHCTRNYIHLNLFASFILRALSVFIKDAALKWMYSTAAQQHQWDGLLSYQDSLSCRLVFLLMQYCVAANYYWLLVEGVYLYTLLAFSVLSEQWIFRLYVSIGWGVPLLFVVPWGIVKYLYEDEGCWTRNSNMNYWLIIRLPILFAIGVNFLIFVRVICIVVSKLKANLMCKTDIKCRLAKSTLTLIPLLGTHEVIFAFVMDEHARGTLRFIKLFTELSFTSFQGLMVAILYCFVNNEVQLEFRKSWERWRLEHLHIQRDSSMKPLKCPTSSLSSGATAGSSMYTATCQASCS

SMILES	EC50 [1]	EC50 [2]	% Relative Potency Ratio [2]
CC[C@H](C)[C@H](NC(=O)[C@H](CO)NC(=O)[C@H](CCC(=O)O)NC(=O)[C@@H](NC(=O)[C@](C)(Cc1ccccc1)NC(=O)[C@H](CC(=O)O)NC(=O)[C@H](CCC(N)=O)NC(=O)[C@H](C)NC(=O)[C@H](C)NC(=O)[C@H](CCCCNC(=O)CC[C@H](NC(=O)CCCCCCCCCCCCCCCCC(=O)O)C(=O)O)NC(=O)[C@H](CO)NC(=O)[C@H](CC(=O)O)NC(=O)[C@H](CC(C)C)NC(=O)[C@](C)(Cc1ccccc1)NC(=O)[C@H](CCCCN)NC(=O)[C@H](CO)NC(=O)[C@@H](NC(=O)[C@H](CC(=O)O)NC(=O)[C@H](CO)NC(=O)[C@@H](NC(=O)[C@](C)(Cc1ccccc1)NC(=O)[C@H](CO)NC(=O)CNC(=O)[C@H](Cc1c[nH]cn1)NC(=O)C(C)(C)NC(=O)[C@@H](N)Cc1c[nH]cn1)[C@@H](C)O)C(C)C)C(C)C)C(=O)N[C@@H](C)C(=O)N[C@@H](CC(N)=O)C(=O)N[C@H](C(N)=O)[C@@H](C)O [Peptide 21] (H-H[Aib]HGS[αMeF]TSDVSK[αMeF]LDSK([γGlu-C18 diacid])AAQD[αMeF]VESIANT-NH2; N-terminus assumed)	0.0688 nM	0.378 nM	0.4
CC[C@H](C)[C@H](NC(=O)[C@H](CO)NC(=O)[C@H](CCC(=O)O)NC(=O)[C@@H](NC(=O)[C@](C)(Cc1ccccc1)NC(=O)[C@H](CC(=O)O)NC(=O)[C@H](CCC(N)=O)NC(=O)[C@H](C)NC(=O)[C@H](C)NC(=O)[C@H](CCCCNC(=O)COCCOCCNC(=O)COCCOCCNC(=O)CC[C@H](NC(=O)CCCCCCCCCCCCCCCCC(=O)O)C(=O)O)NC(=O)[C@H](CO)NC(=O)[C@H](CC(=O)O)NC(=O)[C@H](CC(C)C)NC(=O)[C@](C)(Cc1ccccc1)NC(=O)[C@H](CCCCN)NC(=O)[C@H](CO)NC(=O)[C@@H](NC(=O)[C@H](CC(=O)O)NC(=O)[C@H](CO)NC(=O)[C@@H](NC(=O)[C@](C)(Cc1ccccc1)NC(=O)[C@H](CO)NC(=O)CNC(=O)[C@H](Cc1c[nH]cn1)NC(=O)C(C)(C)NC(=O)[C@@H](N)Cc1c[nH]cn1)[C@@H](C)O)C(C)C)C(C)C)C(=O)N[C@@H](C)C(=O)N[C@@H](CC(N)=O)C(=O)N[C@H](C(N)=O)[C@@H](C)O [Peptide 23] (H-H[Aib]HGS[αMeF]TSDVSK[αMeF]LDSK([AEEA-AEEA-γGlu-C18 diacid])AAQD[αMeF]VESIANT-NH2; N-terminus assumed)	0.321 nM	0.266 nM	2.4
CC[C@H](C)[C@H](NC(=O)C(C)(C)NC(=O)[C@H](CCC(N)=O)NC(=O)[C@@H](NC(=O)[C@](C)(Cc1ccccc1)NC(=O)[C@H](CC(=O)O)NC(=O)[C@H](CCC(N)=O)NC(=O)[C@H](C)NC(=O)[C@H](C)NC(=O)[C@H](CCCCNC(=O)COCCOCCNC(=O)COCCOCCNC(=O)CC[C@H](NC(=O)CC[C@H](NC(=O)CCCCCCCCCCCCCCCCCCC(=O)O)C(=O)O)C(=O)O)NC(=O)[C@H](CO)NC(=O)[C@H](CC(=O)O)NC(=O)[C@H](CC(C)C)NC(=O)[C@](C)(Cc1ccccc1)NC(=O)[C@H](CCCCN)NC(=O)[C@H](CO)NC(=O)[C@@H](NC(=O)[C@H](CC(=O)O)NC(=O)[C@H](CO)NC(=O)[C@@H](NC(=O)[C@](C)(Cc1ccccc1)NC(=O)[C@H](CO)NC(=O)CNC(=O)[C@H](Cc1c[nH]cn1)NC(=O)C(C)(C)NC(=O)[C@@H](N)Cc1c[nH]cn1)[C@@H](C)O)C(C)C)C(C)C)C(=O)N[C@@H](C)C(=O)N[C@@H](CC(N)=O)C(=O)N[C@H](C(N)=O)[C@@H](C)O [Peptide 25] (H-H[Aib]HGS[αMeF]TSDVSK[αMeF]LDSK([AEEA-AEEA-γGlu-γGlu-C20 diacid])AAQD[αMeF]VQ[Aib]IANT-NH2)	1.31 nM	0.726 nM	3.6
CC[C@H](C)[C@H](NC(=O)[C@H](Cc1c[nH]c2ccccc12)NC(=O)[C@H](CCC(N)=O)NC(=O)[C@@H](NC(=O)[C@](C)(Cc1ccccc1)NC(=O)[C@H](CC(=O)O)NC(=O)[C@H](CCC(N)=O)NC(=O)[C@H](C)NC(=O)[C@H](C)NC(=O)[C@H](CCCCNC(=O)COCCOCCNC(=O)COCCOCCNC(=O)CC[C@H](NC(=O)CCCCCCCCCCCCCCCCC(=O)O)C(=O)O)NC(=O)[C@H](CO)NC(=O)[C@H](CC(=O)O)NC(=O)[C@H](CC(C)C)NC(=O)[C@](C)(Cc1ccccc1)NC(=O)[C@H](CCCCN)NC(=O)[C@H](CO)NC(=O)[C@@H](NC(=O)[C@H](CC(=O)O)NC(=O)[C@H](CO)NC(=O)[C@@H](NC(=O)[C@](C)(Cc1ccccc1)NC(=O)[C@H](CO)NC(=O)CNC(=O)[C@H](CCC(N)=O)NC(=O)C(C)(C)NC(=O)[C@@H](N)Cc1c[nH]cn1)[C@@H](C)O)C(C)C)C(C)C)C(=O)N[C@@H](C)C(=O)N[C@@H](CC(N)=O)C(N)=O [Peptide 26] (H-H[Aib]QGS[αMeF]TSDVSK[αMeF]LDSK([AEEA-AEEA-γGlu-C18 diacid])AAQD[αMeF]VQWIAN-NH2)	8.9 nM	0.0806 nM	218.5
CC(C)C[C@H](NC(=O)[C@H](Cc1c[nH]c2ccccc12)NC(=O)[C@H](CCCNC(=N)N)NC(=O)[C@@H](NC(=O)[C@H](Cc1ccccc1)NC(=O)[C@H](CC(=O)O)NC(=O)[C@H](CCC(N)=O)NC(=O)[C@H](C)NC(=O)[C@H](CCCNC(=N)N)NC(=O)[C@H](CCCCNC(=O)COCCOCCNC(=O)COCCOCCNC(=O)CC[C@H](NC(=O)CCCCCCCCCCCCCCCCC(=O)O)C(=O)O)NC(=O)[C@H](CO)NC(=O)[C@H](CC(=O)O)NC(=O)[C@H](CC(C)C)NC(=O)[C@](C)(Cc1ccccc1)NC(=O)[C@H](CCCCN)NC(=O)[C@H](CO)NC(=O)[C@@H](NC(=O)[C@H](CC(=O)O)NC(=O)[C@H](CO)NC(=O)[C@@H](NC(=O)[C@H](Cc1ccccc1)NC(=O)[C@@H](NC(=O)CNC(=O)[C@H](CCC(N)=O)NC(=O)C(C)(C)NC(=O)[C@@H](N)Cc1c[nH]cn1)[C@@H](C)O)[C@@H](C)O)C(C)C)C(C)C)C(=O)N[C@@H](CC(C)C)C(=O)NC(C)(C)C(=O)N[C@H](C(=O)O)[C@@H](C)O [Peptide 28] (H-H[Aib]QGTFTSDVSK[αMeF]LDSK([AEEA-AEEA-γGlu-C18 diacid])RAQDFVRWLL[Aib]T-OH)	0.26 nM	0.129 nM	4.0

More lines, in order of falling EC50 [1], values ahead:

EC50 [1]	EC50 [2]	% Relative Potency Ratio [2]	SMILES
2.72 nM	1.23 nM	4.4	CC[C@H](C)[C@H](NC(=O)[C@H](CO)NC(=O)[C@H](CCC(=O)O)NC(=O)[C@@H](NC(=O)[C@](C)(Cc1ccccc1)NC(=O)[C@H](CC(=O)O)NC(=O)[C@H](CCC(N)=O)NC(=O)[C@H](C)NC(=O)[C@H](C)NC(=O)[C@H](CCCCNC(=O)COCCOCCNC(=O)COCCOCCNC(=O)CC[C@H](NC(=O)CC[C@H](NC(=O)CCCCCCCCCCCCCCCCCCC(=O)O)C(=O)O)C(=O)O)NC(=O)[C@H](CO)NC(=O)[C@H](CC(=O)O)NC(=O)[C@H](CC(C)C)NC(=O)[C@](C)(Cc1ccccc1)NC(=O)[C@H](CCCCN)NC(=O)[C@H](CO)NC(=O)[C@@H](NC(=O)[C@H](CC(=O)O)NC(=O)[C@H](CO)NC(=O)[C@@H](NC(=O)[C@](C)(Cc1ccccc1)NC(=O)[C@H](CO)NC(=O)CNC(=O)[C@H](Cc1c[nH]cn1)NC(=O)C(C)(C)NC(=O)[C@@H](N)Cc1c[nH]cn1)[C@@H](C)O)C(C)C)C(C)C)C(=O)N[C@@H](C)C(=O)N[C@@H](CC(N)=O)C(=O)N[C@H](C(N)=O)[C@@H](C)O [Peptide 22] (H-H[Aib]HGS[αMeF]TSDVSK[αMeF]LDSK([AEEA-AEEA-γGlu-γGlu-C20 diacid])AAQD[αMeF]VESIANT-NH2; N-terminus assumed)
1.44 nM	0.0182 nM	156.4	CC[C@H](C)[C@H](NC(=O)[C@H](Cc1c[nH]c2ccccc12)NC(=O)[C@H](CCC(=O)O)NC(=O)[C@@H](NC(=O)[C@](C)(Cc1ccccc1)NC(=O)[C@H](CC(=O)O)NC(=O)[C@H](CCC(N)=O)NC(=O)[C@H](C)NC(=O)[C@H](C)NC(=O)[C@H](CCCCNC(=O)COCCOCCNC(=O)COCCOCCNC(=O)CC[C@H](NC(=O)CCCCCCCCCCCCCCCCC(=O)O)C(=O)O)NC(=O)[C@H](CO)NC(=O)[C@H](CC(=O)O)NC(=O)[C@H](CC(C)C)NC(=O)[C@](C)(Cc1ccccc1)NC(=O)[C@H](CCCCN)NC(=O)[C@H](CO)NC(=O)[C@@H](NC(=O)[C@H](CC(=O)O)NC(=O)[C@H](CO)NC(=O)[C@@H](NC(=O)[C@](C)(Cc1ccccc1)NC(=O)[C@H](CO)NC(=O)CNC(=O)[C@H](CCC(N)=O)NC(=O)C(C)(C)NC(=O)[C@@H](N)Cc1c[nH]cn1)[C@@H](C)O)C(C)C)C(C)C)C(=O)N[C@@H](C)C(=O)N[C@@H](CC(N)=O)C(N)=O [Peptide 27] (H-H[Aib]QGS[αMeF]TSDVSK[αMeF]LDSK([AEEA-AEEA-γGlu-C18 diacid])AAQD[αMeF]VEWIAN-NH2; N-terminus assumed)
0.101 nM	0.0828 nM	2.4	CC[C@H](C)[C@H](NC(=O)C(C)(C)NC(=O)[C@H](CCC(N)=O)NC(=O)[C@@H](NC(=O)[C@](C)(Cc1ccccc1)NC(=O)[C@H](CC(=O)O)NC(=O)[C@H](CCC(N)=O)NC(=O)[C@H](C)NC(=O)[C@H](C)NC(=O)[C@H](CCCCNC(=O)COCCOCCNC(=O)COCCOCCNC(=O)CC[C@H](NC(=O)CCCCCCCCCCCCCCCCC(=O)O)C(=O)O)NC(=O)[C@H](CO)NC(=O)[C@H](CC(=O)O)NC(=O)[C@H](CC(C)C)NC(=O)[C@](C)(Cc1ccccc1)NC(=O)[C@H](CCCCN)NC(=O)[C@H](CO)NC(=O)[C@@H](NC(=O)[C@H](CC(=O)O)NC(=O)[C@H](CO)NC(=O)[C@@H](NC(=O)[C@](C)(Cc1ccccc1)NC(=O)[C@H](CO)NC(=O)CNC(=O)[C@H](Cc1c[nH]cn1)NC(=O)C(C)(C)NC(=O)[C@@H](N)Cc1c[nH]cn1)[C@@H](C)O)C(C)C)C(C)C)C(=O)N[C@@H](C)C(=O)N[C@@H](CC(N)=O)C(=O)N[C@H](C(N)=O)[C@@H](C)O [Peptide 24] (H-H[Aib]HGS[αMeF]TSDVSK[αMeF]LDSK([AEEA-AEEA-γGlu-C18 diacid])AAQD[αMeF]VQ[Aib]IANT-NH2; N-terminus assumed)
